From ChEMBL document CHEMBL3885861, “Open TG-GATES”

Organism: Rattus norvegicus
Assay: Open TG-GATES - Regimen: Single
Type: toxicity, organism-based, Sprague-Dawley
Parameters: regimen Single, gender Male, age 6 weeks
Settings: in vivo, po, 300 mg/kg, route gavage, dose level High; for APTT / Bas / Eos / Fbg / Hb / Ht / Lym / MCH / MCHC / MCV / Mono / Neu / PT / Plat / RBC / Ret / WBC: tissue Blood; for KIDNEY_L / KIDNEY_R / KIDNEY_TOTAL: tissue Kidney; for LIVER: tissue Liver; for A/G / ALP / ALT / AST / BUN / CRE / Ca / Cl / DBIL / GLC / IP / K / LDH / Na / PL / RALB / TBIL / TC / TG / TP / gamma-GTP: tissue Plasma

Work on `Nc1ccc(Cc2ccc(N)cc2)cc1` yielded a TERMINAL_BW (3 h) of 208.2 g, an APTT (3 h) of 15.8 s and a Bas (3 h) of 0%. The Eos (3 h) was 0.8%, the Fbg (3 h) was 257.6 mg/dL and the Hb (3 h) was 13.2 g/dL. The Ht (3 h) was 38.1%, the Lym (3 h) was 67.2% and the MCH (3 h) was 22 pg. It also gave an MCHC (3 h) of 34.5%, an MCV (3 h) of 63.6 fL and a Mono (3 h) of 6%. For the same molecule, the Neu (3 h) was 25.6%, the PT (3 h) was 12.1 s and the Plat (3 h) was 142.6 x10_4/uL. The RBC (3 h) was 600 x10_4/ul, the Ret (3 h) was 8.7% and the WBC (3 h) was 64.7 x10_2/uL. It also gave a KIDNEY_L (3 h) of 0.9 g, a KIDNEY_R (3 h) of 0.9 g and a KIDNEY_TOTAL (3 h) of 1.8 g. For the same molecule, the LIVER (3 h) was 9 g, the A/G (3 h) was 0.8 and the ALP (3 h) was 1363.8 IU/L. It also gave an ALT (3 h) of 64 IU/L, an AST (3 h) of 137.4 IU/L and a BUN (3 h) of 10.6 mg/dL. It also gave a CRE (3 h) of 0.2 mg/dL, a Ca (3 h) of 10.5 mg/dL and a Cl (3 h) of 102 meq/L. It also gave a DBIL (3 h) of 0.094 mg/dL, a GLC (3 h) of 183.4 mg/dL and an IP (3 h) of 9.4 mg/dL. For the same molecule, the K (3 h) was 4 meq/L, the LDH (3 h) was 175.4 IU/L and the Na (3 h) was 139.8 meq/L. For the same molecule, the PL (3 h) was 170.8 mg/dL, the RALB (3 h) was 2.5 g/dL and the TBIL (3 h) was 0.2 mg/dL. The TC (3 h) was 81.4 mg/dL, the TG (3 h) was 79 mg/dL and the TP (3 h) was 5.4 g/dL. For the same molecule, the gamma-GTP (3 h) was 2.6 IU/L, the TERMINAL_BW (6 h) was 207.7 g and the APTT (6 h) was 15.1 s. The Bas (6 h) was 0%, the Eos (6 h) was 0.6% and the Fbg (6 h) was 257.4 mg/dL. The Hb (6 h) was 13.3 g/dL, the Ht (6 h) was 38.2% and the Lym (6 h) was 60.6%. The MCH (6 h) was 21 pg, the MCHC (6 h) was 34.8% and the MCV (6 h) was 60.2 fL. For the same molecule, the Mono (6 h) was 3.4%, the Neu (6 h) was 34.6% and the PT (6 h) was 11.9 s. It also gave a Plat (6 h) of 133.9 x10_4/uL, an RBC (6 h) of 634.6 x10_4/ul and a Ret (6 h) of 7.3%. The WBC (6 h) was 78.7 x10_2/uL, the KIDNEY_L (6 h) was 0.9 g and the KIDNEY_R (6 h) was 0.9 g. The KIDNEY_TOTAL (6 h) was 1.9 g, the LIVER (6 h) was 8.9 g and the A/G (6 h) was 0.8. The ALP (6 h) was 1513.4 IU/L, the ALT (6 h) was 67 IU/L and the AST (6 h) was 168.6 IU/L. It also gave a BUN (6 h) of 11.8 mg/dL, a CRE (6 h) of 0.2 mg/dL and a Ca (6 h) of 10.2 mg/dL. For the same molecule, the Cl (6 h) was 100.8 meq/L, the DBIL (6 h) was 0.4 mg/dL and the GLC (6 h) was 172.6 mg/dL. For the same molecule, the IP (6 h) was 9.1 mg/dL, the K (6 h) was 4.2 meq/L and the LDH (6 h) was 196.8 IU/L. For the same molecule, the Na (6 h) was 140.8 meq/L, the PL (6 h) was 152.8 mg/dL and the RALB (6 h) was 2.3 g/dL. The TBIL (6 h) was 0.6 mg/dL, the TC (6 h) was 79.8 mg/dL and the TG (6 h) was 42.6 mg/dL. The TP (6 h) was 5.1 g/dL, the gamma-GTP (6 h) was 5 IU/L and the TERMINAL_BW (9 h) was 208 g. The APTT (9 h) was 13.8 s, the Bas (9 h) was 0% and the Eos (9 h) was 0.4%. The Fbg (9 h) was 257 mg/dL, the Hb (9 h) was 12.6 g/dL and the Ht (9 h) was 35.8%. For the same molecule, the Lym (9 h) was 52.2%, the MCH (9 h) was 21.1 pg and the MCHC (9 h) was 35.1%. The MCV (9 h) was 60.1 fL, the Mono (9 h) was 3.6% and the Neu (9 h) was 42.6%. For the same molecule, the PT (9 h) was 11.9 s, the Plat (9 h) was 139.7 x10_4/uL and the RBC (9 h) was 595.6 x10_4/ul. For the same molecule, the Ret (9 h) was 7.8%, the WBC (9 h) was 85.3 x10_2/uL and the KIDNEY_L (9 h) was 0.9 g. For the same molecule, the KIDNEY_R (9 h) was 0.9 g, the KIDNEY_TOTAL (9 h) was 1.9 g and the LIVER (9 h) was 8.6 g. For the same molecule, the A/G (9 h) was 0.8, the ALP (9 h) was 1671 IU/L and the ALT (9 h) was 132.8 IU/L. It also gave an AST (9 h) of 365.6 IU/L, a BUN (9 h) of 11.8 mg/dL and a CRE (9 h) of 0.2 mg/dL. It also gave a Ca (9 h) of 10.3 mg/dL, a Cl (9 h) of 101.6 meq/L and a DBIL (9 h) of 0.7 mg/dL. It also gave a GLC (9 h) of 176.2 mg/dL, an IP (9 h) of 9.2 mg/dL and a K (9 h) of 4.3 meq/L. It also gave an LDH (9 h) of 351 IU/L, a Na (9 h) of 142 meq/L and a PL (9 h) of 173 mg/dL. It also gave an RALB (9 h) of 2.3 g/dL, a TBIL (9 h) of 1 mg/dL and a TC (9 h) of 85 mg/dL. It also gave a TG (9 h) of 45.2 mg/dL, a TP (9 h) of 5.1 g/dL and a gamma-GTP (9 h) of 7.4 IU/L. For the same molecule, the TERMINAL_BW (24 h) was 197.2 g, the APTT (24 h) was 16.2 s and the Bas (24 h) was 0%. For the same molecule, the Eos (24 h) was 1%, the Fbg (24 h) was 321.4 mg/dL and the Hb (24 h) was 12 g/dL. For the same molecule, the Ht (24 h) was 33.2%, the Lym (24 h) was 52.8% and the MCH (24 h) was 21.6 pg. For the same molecule, the MCHC (24 h) was 36%, the MCV (24 h) was 59.8 fL and the Mono (24 h) was 6.2%. The Neu (24 h) was 39%, the PT (24 h) was 11.9 s and the Plat (24 h) was 148.1 x10_4/uL. For the same molecule, the RBC (24 h) was 554.4 x10_4/ul, the Ret (24 h) was 6% and the WBC (24 h) was 157.9 x10_2/uL. For the same molecule, the KIDNEY_L (24 h) was 0.9 g, the KIDNEY_R (24 h) was 0.9 g and the KIDNEY_TOTAL (24 h) was 1.8 g. For the same molecule, the LIVER (24 h) was 7.5 g, the A/G (24 h) was 0.8 and the ALP (24 h) was 3659.6 IU/L. For the same molecule, the ALT (24 h) was 566.8 IU/L, the AST (24 h) was 1154.8 IU/L and the BUN (24 h) was 12 mg/dL. The CRE (24 h) was 0.2 mg/dL, the Ca (24 h) was 11 mg/dL and the Cl (24 h) was 102.6 meq/L. It also gave a DBIL (24 h) of 2.2 mg/dL, a GLC (24 h) of 145.6 mg/dL and an IP (24 h) of 8.7 mg/dL. The K (24 h) was 4 meq/L, the LDH (24 h) was 788.8 IU/L and the Na (24 h) was 144.2 meq/L. For the same molecule, the PL (24 h) was 346.4 mg/dL, the RALB (24 h) was 2.4 g/dL and the TBIL (24 h) was 3.2 mg/dL. The TC (24 h) was 145.2 mg/dL, the TG (24 h) was 133.6 mg/dL and the TP (24 h) was 5.6 g/dL. The gamma-GTP (24 h) was 8.4 IU/L.
